Reference: BigSolDB 2.1

O=C1CCC(c2ccc(Cl)c(Cl)c2)c2ccccc21 (configuration not stated)
Conditions	solubility (mole fraction)
in DMF, 278.16 K	0.0335
in DMF, 283.37 K	0.0408
in DMF, 288.12 K	0.0487
in DMF, 293.13 K	0.059
in DMF, 298.17 K	0.0717
in DMF, 303.28 K	0.0881
in DMF, 308.28 K	0.106
in DMF, 313.32 K	0.129
in DMF, 318.27 K	0.155
in THF, 278.04 K	0.0699
in THF, 282.93 K	0.0823
in THF, 288.33 K	0.096
in THF, 293.28 K	0.109
in THF, 298.24 K	0.124
in THF, 302.94 K	0.14
in THF, 308.34 K	0.162
in THF, 313.52 K	0.187
in acetone, 282.13 K	0.0162
in acetone, 288.02 K	0.0217
in acetone, 292.83 K	0.0261
in acetone, 298.28 K	0.0321
in acetone, 303.23 K	0.0397
in acetone, 307.94 K	0.0498
in acetone, 313.74 K	0.0673
in acetone, 318.56 K	0.0871
in acetone, 323.57 K	0.114
in ethanol, 283.12 K	0.00171
in ethanol, 288.27 K	0.0021
in ethanol, 293.38 K	0.00252
in ethanol, 298.04 K	0.00303
in ethanol, 302.93 K	0.00376
in ethanol, 308.32 K	0.0049
in ethanol, 314.17 K	0.00667
in ethanol, 318.74 K	0.00852
in ethanol, 323.26 K	0.0108
in isopropanol, 278.12 K	0.000955
in isopropanol, 283.38 K	0.00128
in isopropanol, 288.33 K	0.00163
in isopropanol, 293.07 K	0.00209
in isopropanol, 298.33 K	0.00278
in isopropanol, 303.36 K	0.0037
in isopropanol, 308.46 K	0.00496
in isopropanol, 313.26 K	0.00649
in isopropanol, 318.54 K	0.00864
in methanol, 277.93 K	0.00087
in methanol, 283.06 K	0.00107
in methanol, 288.28 K	0.00141
in methanol, 293.42 K	0.00186
in methanol, 298.04 K	0.00235
in methanol, 302.77 K	0.00293
in methanol, 308.56 K	0.00372
in methanol, 313.53 K	0.00446
in methanol, 319.04 K	0.00533
in toluene, 278.18 K	0.0391
in toluene, 283.13 K	0.0461
in toluene, 288.28 K	0.0548
in toluene, 293.22 K	0.0649
in toluene, 298.12 K	0.0771
in toluene, 303.14 K	0.0924
in toluene, 308.46 K	0.112
in toluene, 313.43 K	0.135
in toluene, 318.34 K	0.161
